Molecular target: T1, glycolate oxidase (GO) (Homo sapiens, UniProt Q9UJM8)
T1 construct: healthy adult volunteers received single doses of Compound 1a; from tissue; host or cells: liver of healthy adult human volunteers (in vivo, Phase 1 study)
T1 sequence (Q9UJM8 1-370): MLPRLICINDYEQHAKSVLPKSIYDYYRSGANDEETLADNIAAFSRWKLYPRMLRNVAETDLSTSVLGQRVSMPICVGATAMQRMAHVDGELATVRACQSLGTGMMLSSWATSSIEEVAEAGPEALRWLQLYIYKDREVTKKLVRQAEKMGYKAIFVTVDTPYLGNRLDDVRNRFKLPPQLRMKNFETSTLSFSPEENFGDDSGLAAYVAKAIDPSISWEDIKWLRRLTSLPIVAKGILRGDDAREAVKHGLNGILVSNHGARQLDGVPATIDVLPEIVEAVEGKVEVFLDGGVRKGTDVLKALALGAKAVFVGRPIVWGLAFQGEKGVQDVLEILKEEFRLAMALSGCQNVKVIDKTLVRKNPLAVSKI
Assay: Phase 1 SAD/MAD study: plasma glycolate as measure of target engagement
Format: in vivo
Method: Pharmacodynamics: Acidified human K2-EDTA plasma samples were analyzed for oxalic acid and glycolic acid by a validated method over a range of 8.00 to 120 μM for oxalic acid and 5.00 to 625 μM for glycolic acid based on the analysis of 50 μL of sample. Human plasma containing oxalic acid, glycolic acid and internal standards, ^13C2-oxalic acid and D2-glycolic acid, was derivatized after protein precipitation then extracted using liquid-liquid extraction and analyzed by a Sciex API 4000 LC-MS-MS equipped with an HPLC column. The peak area of the m/z 224.1→152.1 oxalic acid product ion was measured against the peak area of the m/z 226.1→152.1 13C2-oxalic acid internal standard product ion. The peak area of the m/z 210.1→107.0 glycolic acid product ion was measured against the peak area of the m/z 212.1→107.0 D2-glycolic acid internal standard product ion. Quantitation was performed using a weighted 1/x2 linear least squares regression analysis generated from calibration standards prepared on the day of extraction.
Pharmacodynamics of Compound 1a: As a measure of target engagement, plasma glycolate levels were assessed in Part A and Part B. In Part A, healthy adult volunteers received single doses of Compound 1a at 40, 120, 360, 1,000, 2,000, and 3,000 mg with increases in plasma glycolate observed (FIG. 3A). At all doses, mean maximal plasma glycolate concentrations exceeded the upper limit of normal (ULN) of 14 μM, reaching a mean maximum concentration of >90 μM at doses above 1,000 mg, which was sustained for 24 hours. Median time to recovery (plasma glycolate less than or equal to ULN) after a single dose was less than 72 hours.
In Part B, healthy adult volunteers received multiple doses of Compound 1a at 75 mg qd, 125 mg q12 h, 500 mg q12 h, 500 mg qd, 750 mg qd, and 1000 mg qd. As with Part A, mean maximal plasma glycolate concentrations exceeded the ULN at all doses on day 1 to a range of 50 to 100 μM and further increased on day 7 to a range of 100 to 200 μM.

[1] = Part A, single doses above 1,000 mg

`O.O=C([O-])c1nn[nH]c1Oc1ccc(-c2ccc(C3CC(F)(F)C3)cc2)cc1.[Na+]` [Compound 1a, sodium 5-((4′-(3,3-difluorocyclobutyl)-[1,1′-biphenyl]-4-yl)oxy)-1H-1,2,3-triazole-4-carboxylate monohydrate] was tested, and the “time to inhibition of glycolate oxidase (GO) with increased plasma glycolate concentrations” value (FIG. 3 legend) was at most 2 h, the “mean maximal plasma glycolate concentrations (exceeded ULN)” value (Part A, all single doses 40 to 3,000 mg) was over 14 µM and the “duration for which mean maximum plasma glycolate concentration was sustained” value [1] was 24 h. For the same compound, the “mean maximum plasma glycolate concentration” value [1] was over 90 µM, the “levels of plasma glycolate compared with lumasiran” value (Part B, all doses) was “significantly higher than those observed with lumasiran at 3 mg/kg or 6 mg/kg” and the “Median time to recovery (plasma glycolate less than or equal to ULN)” value (after a single dose) was “less than 72 hours”. For the same compound, the “plasma glycolate concentrations at steady state” value (steady state, multiple doses) was “comparable to those measured in case reports of individuals with germline HAO1 knockout”.

— patent US20240423961A1, “1H-1,2,3-TRIAZOLE-4-CARBOXYLIC ACIDS FOR TREATMENT OF HYPEROXALURIA AND KIDNEY STONES” (CANTERO THERAPEUTICS, INC., priority 2021, published 2024)
